ChEMBL document CHEMBL1201862, “PubChem BioAssay data set” (2004)
Calls of active or inactive are those of the source.

What was measured:
[1] = target: T1, Tyrosine-protein phosphatase non-receptor type 7 (Homo sapiens, UniProt P35236); assay: inhibitors of human HePTP phosphatase, […], biochemical, absorbance, leukemia target (AID 521); assay type: functional
T1 sequence (P35236 whole entry): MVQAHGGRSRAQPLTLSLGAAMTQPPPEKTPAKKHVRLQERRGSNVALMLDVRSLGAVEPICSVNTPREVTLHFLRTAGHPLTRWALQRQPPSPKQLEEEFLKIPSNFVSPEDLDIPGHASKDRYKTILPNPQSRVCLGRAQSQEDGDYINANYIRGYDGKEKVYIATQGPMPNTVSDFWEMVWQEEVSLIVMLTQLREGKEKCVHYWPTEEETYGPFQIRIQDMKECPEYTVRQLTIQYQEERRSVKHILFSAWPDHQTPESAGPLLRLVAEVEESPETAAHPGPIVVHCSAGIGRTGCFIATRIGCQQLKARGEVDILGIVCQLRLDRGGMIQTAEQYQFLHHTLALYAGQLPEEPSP

[2] = cytotoxicity toward HCT116 cells – cell-based, CellTiter-Glo luminescence, IC50, dose response (AID 1117332); assay type: functional; settings: HCT-116
[3] = RKO cell viability reduction, dose response, CellTiter-Glo luminescence (AID 1117322); assay type: functional
Cytochrome P450 2C9 = Cytochrome P450 2C9 (Homo sapiens, UniProt P11712); settings: Potency
[4] = SNU-C1 cell viability reduction, dose response, CellTiter-Glo luminescence (AID 1117323); assay type: functional, cell-based
[5] = CellTiter-Glo luminescent dose response of DLD-1 viability loss (AID 1117352); assay type: functional
[6] = Concentration-dependent survival of SW480 colon cancer line, luminescence detection with CellTiter-Glo, half-maximal inhibitory concentration (AID 1117338); assay type: functional
[7] = cytotoxicity toward HT-29 cells – cell-based, CellTiter-Glo luminescence, IC50, dose response (AID 1117330); assay type: functional
[8] = cytotoxicity toward Colo320 cells – cell-based, CellTiter-Glo luminescence, IC50, dose response (AID 1117334); assay type: functional; settings: COLO 320
cells [9] = assay type: functional, cell-based
[10] = target: Mitogen-activated protein kinase 10 (Homo sapiens, UniProt P53779); assay: Dose response biochemical screening assay for inhibitors of c-Jun N-Terminal Kinase 3 (JNK3). [Related pubchem assays: 746 ]
cells [11] = assay type: functional, cell-based; remark: listed apart in the source
[12] = THP-1 cell cytotoxicity, dose response, cytotoxicity control for Vif-APOBEC3G degradation inhibitor project, THP-1 cells (AID 1117359); assay type: functional; settings: Human immunodeficiency virus 1, THP-1
[13] = inhibitors of intracellular T. cruzi replication, confirmation, NIH3T3 host cells, beta-gal luminescence (AID 2044); assay type: functional, cell-based;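 note: intracellular parasites grown in NIH/3T3 mouse fibroblasts as host cells; luminescent beta-galactosidase reporter signal from transgenic T. cruzi replicating inside host cells; inhibitors lower the luminescence signal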
cells [14] = assay: cells
[15] = cytotoxicity toward NIH3T3 fibroblasts, dose response, counter-screen, cell-based, ATP luminescence, mouse fibroblasts (AID 2010); assay type: functional;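 note: cells exposed to compound for about 90 hours before reading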
[16] = target: T2, Nuclear receptor subfamily 0 group B member 1 (Homo sapiens, UniProt P51843); assay type: functional, cell-based;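 note: HEK293T cells transfected with SF-1 and DAX-1 plus StAR promoter luciferase reporter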
T2 sequence (P51843 whole entry): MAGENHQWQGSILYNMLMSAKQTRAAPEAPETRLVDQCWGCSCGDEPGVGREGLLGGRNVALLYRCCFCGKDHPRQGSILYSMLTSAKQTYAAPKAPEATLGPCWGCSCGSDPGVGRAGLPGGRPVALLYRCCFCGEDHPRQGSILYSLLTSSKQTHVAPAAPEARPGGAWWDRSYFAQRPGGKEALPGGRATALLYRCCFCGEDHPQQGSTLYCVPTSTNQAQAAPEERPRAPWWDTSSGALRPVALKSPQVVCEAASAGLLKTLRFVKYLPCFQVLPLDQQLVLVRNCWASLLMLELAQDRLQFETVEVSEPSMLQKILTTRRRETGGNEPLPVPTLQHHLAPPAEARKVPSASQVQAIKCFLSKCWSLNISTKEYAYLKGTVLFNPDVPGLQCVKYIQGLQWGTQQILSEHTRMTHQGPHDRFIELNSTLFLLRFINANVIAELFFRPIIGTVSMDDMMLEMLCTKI

BJ = assay: cells; assay type: functional, cell-based; settings: Homo sapiens
[17] = cytotoxicity toward DRD oncogenic fibroblasts, dose response, cell-based, non-viral oncogenic, luminescence (AID 1934); assay type: functional; settings: Homo sapiens
cells [18] = assay type: functional, cell-based; remark: listed apart in the source
[19] = Luminescence-based dose response cell-based high throughput screening assay for cytotoxic compounds using the IEC-6 intestinal epithelial cell line. [Related pubchem assays: 1858 (Summary AID.), 1825 (Counterscreen.), 1907 (Confirmation screen.)]; assay type: functional
[20] = Luminescence Cell-Based Dose Response to Identify Activators of 5'UTR Stem-Loop Driven Prion Protein mRNA Translation in H4-C Neuroglioblastoma Cells. [Related pubchem assays: 1829 (Project Summary), 1814 (Primary HTS)]; assay type: functional
[21] = Luminescence Cell-Based Dose Confirmation to Identify Activators of 5'UTR Stem-Loop Driven Alpha-Synuclein mRNA Translation in H4 Neuroglioblastoma Cells. [Related pubchem assays: 1829 (Project Summary), 1814 (Primary HTS)]; assay type: functional
HeLa = assay: HeLa cell cytotoxicity, dose response, cytotoxicity control for MITF activator project, CellTiter-Glo luminescence, cherry-pick samples (AID 540259); assay type: functional, cell-based; settings: Homo sapiens
[22] = Luminescence Cell-Based Dose Response HTS to Identify Activators of Luciferase Translation or Activity in H4 […] Cells. [Related pubchem assays: 1829 (Project Summary), 1814 (Primary HTS)]; assay type: functional
[23] = Luminescence Cell-Based Dose Response to Identify Activators of Luciferase Translation or Activity in H4-C Neuroglioblastoma Cells. [Related pubchem assays: 1829 (Project Summary), 1814 (Primary HTS)]; assay type: functional
Protein skinhead-1 = target: T3, Protein skinhead-1 (Caenorhabditis elegans, UniProt P34707); assay type: functional
T3 sequence (P34707 whole entry): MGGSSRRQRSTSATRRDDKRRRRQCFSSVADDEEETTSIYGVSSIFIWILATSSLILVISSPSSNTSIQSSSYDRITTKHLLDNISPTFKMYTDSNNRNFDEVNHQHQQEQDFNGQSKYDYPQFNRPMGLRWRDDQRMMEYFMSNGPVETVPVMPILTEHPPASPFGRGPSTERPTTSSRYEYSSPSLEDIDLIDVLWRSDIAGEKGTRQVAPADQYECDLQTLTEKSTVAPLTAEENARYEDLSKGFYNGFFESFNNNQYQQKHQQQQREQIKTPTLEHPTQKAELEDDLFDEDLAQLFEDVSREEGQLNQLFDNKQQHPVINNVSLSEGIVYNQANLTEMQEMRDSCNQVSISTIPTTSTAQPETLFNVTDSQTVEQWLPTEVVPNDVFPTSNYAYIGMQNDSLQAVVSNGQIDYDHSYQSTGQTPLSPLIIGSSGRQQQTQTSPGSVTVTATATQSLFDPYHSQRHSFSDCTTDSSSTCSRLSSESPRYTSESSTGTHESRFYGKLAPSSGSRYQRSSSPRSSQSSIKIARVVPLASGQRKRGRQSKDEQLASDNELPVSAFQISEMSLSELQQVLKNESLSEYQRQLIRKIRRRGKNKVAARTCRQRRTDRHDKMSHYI

H4 = assay: Luminescence Cell-Based Dose Response HTS to Identify Activators of 5'UTR Stem-Loop Driven Prion Protein mRNA Translation in H4 Neuroglioblastoma Cells. [Related pubchem assays: 1829 (Project Summary), 1814 (Primary HTS)]; assay type: functional; settings: Homo sapiens
[24] = Luminescence Cell-Based Dose Confirmation HTS to Identify Activators of 5'UTR Stem-Loop Driven Alpha-Synuclein mRNA Translation in H4 Neuroglioblastoma Cells. [Related pubchem assays: 1829 (Project Summary), 1814 (Primary HTS)]; assay type: functional
Vero [25] = assay: cells; assay type: functional; settings: Chlorocebus sabaeus
Vero [26] = assay: host cell cytotoxicity of antiviral hits, dose response, cytotoxicity control for West Nile virus antiviral project, secondary assay (AID 1650); assay type: functional; settings: Chlorocebus sabaeus

Sequence of Mitogen-activated protein kinase 10 (P53779 whole entry): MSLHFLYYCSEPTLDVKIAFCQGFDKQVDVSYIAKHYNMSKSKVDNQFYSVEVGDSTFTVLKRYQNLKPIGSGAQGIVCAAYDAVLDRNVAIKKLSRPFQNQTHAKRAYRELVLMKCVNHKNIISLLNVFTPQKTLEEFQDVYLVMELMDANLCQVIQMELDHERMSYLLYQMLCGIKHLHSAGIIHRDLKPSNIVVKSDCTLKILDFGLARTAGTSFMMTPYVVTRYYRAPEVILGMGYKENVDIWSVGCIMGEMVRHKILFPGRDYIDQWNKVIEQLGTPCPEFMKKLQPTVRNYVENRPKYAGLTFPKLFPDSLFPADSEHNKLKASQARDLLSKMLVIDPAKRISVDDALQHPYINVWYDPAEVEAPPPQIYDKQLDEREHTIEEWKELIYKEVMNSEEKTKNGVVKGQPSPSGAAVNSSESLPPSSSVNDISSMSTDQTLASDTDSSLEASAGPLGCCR
Sequence of Cytochrome P450 2C9 (P11712 whole entry): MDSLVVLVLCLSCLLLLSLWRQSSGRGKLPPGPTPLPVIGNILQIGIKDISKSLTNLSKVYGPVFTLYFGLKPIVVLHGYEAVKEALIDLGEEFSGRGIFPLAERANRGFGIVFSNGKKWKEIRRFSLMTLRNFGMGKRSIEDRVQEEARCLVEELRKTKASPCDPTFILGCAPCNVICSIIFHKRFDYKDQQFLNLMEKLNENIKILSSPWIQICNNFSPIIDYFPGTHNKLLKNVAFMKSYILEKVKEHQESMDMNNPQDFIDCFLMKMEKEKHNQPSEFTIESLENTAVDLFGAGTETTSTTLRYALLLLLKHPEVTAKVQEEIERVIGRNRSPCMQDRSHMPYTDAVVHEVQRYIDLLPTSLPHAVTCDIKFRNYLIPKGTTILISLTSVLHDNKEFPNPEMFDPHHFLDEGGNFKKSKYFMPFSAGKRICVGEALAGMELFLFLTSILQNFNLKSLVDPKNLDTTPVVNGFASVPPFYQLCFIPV

With CC1(C)N(O)CC(c2cccs2)=[N+]1[O-] as the molecule, how does the IC50 [1] read?
Its IC50 is > 100 µM (not active).

Which results are given for CCc1cccc2c3c([nH]c12)C(CC)(CC(=O)O)OCC3 (stereo not drawn) [ETODOLAC]?
IC50 [2]: > 20 µM (inactive); IC50 [3]: > 20 µM (inactive); AC50 (Cytochrome P450 2C9): 39.8 µM (inconclusive); IC50 [4]: > 20 µM (inactive); IC50 [5]: > 20 µM (inactive); IC50 [6]: > 20 µM (inactive); IC50 [7]: > 20 µM (inactive); IC50 [8]: > 20 µM (inactive)

With c1ccc(-n2ncc3c(NCc4ccco4)ncnc32)cc1 as the molecule, how does the EC50 (cells [9]) read?
Its EC50 is > 350 µM (not active).

What about the IC50 [10] of the same molecule?
The IC50 was 60.9 µM (not active).

And the EC50 (cells [11])?
The EC50 was > 350 µM (not active).

Which CC50 [12] does the source give for Cc1ccc(CNC(=O)CCC2CCCN(Cc3cc4ccccc4o3)C2)o1 (stereo not drawn) here?
The CC50 was 33.8 µM (active).

What about the EC50 [13] of the same molecule?
The EC50 was < 0.1 µM (active).

What about the EC50 (cells [14]) of the same molecule?
Its EC50 is 0.222 µM (active).

What about the EC50 [15] of the same molecule?
The EC50 was > 30 µM (not active).

What does the source list for O=C(N/N=C/C(Br)=C\c1ccccc1)c1[nH]nc2c1CCC2?
IC50 [16]: > 0.834 µM (active); EC50 (cells [9]): > 350 µM (not active); EC50 (BJ): 0.223 µM (inconclusive); EC50 (cells [11]): 17.8 µM (active); EC50 [17]: 0.3 µM (inconclusive); IC50 (cells [18]): > 67.5 µM (inactive); IC50 [19]: 0.183 µM (active)

With O=C(Nc1ccccc1)O/N=C/c1ccc(F)cc1 as the molecule, how does the EC50 [20] read?
Its EC50 is 0.477 µM (active).

What about the EC50 [21] of the same molecule?
Its EC50 is 0.321 µM (active).

What about the AC50 (HeLa) of the same molecule?
Its AC50 is 54.2 µM (active).

What about the EC50 [22] of the same molecule?
Its EC50 is < 0.1 µM (active).

What about the EC50 [23] of the same molecule?
Its EC50 is 0.372 µM (active).

And the IC50 (Protein skinhead-1)?
The IC50 was > 100 µM (inactive).

What about the EC50 (H4) of the same molecule?
Its EC50 is 8.27 µM (active).

And the EC50 [24]?
The EC50 was < 0.1 µM (active).

Which results are given for O=C(CCN1C(=O)/C(=C\c2cccc(Br)c2)SC1=S)N1CCOCC1?
CC50 (Vero [25]): > 25 µM (active); CC50 (Vero [26]): 31.3 µM (active)
